Results from patent US6517742B1, “Sunscreen agents, photoprotective cosmetic compositions containing them and uses thereof” (L'Oreal, priority 1996, dated 2003).

Experiment: UV absorption spectrum in ethanol (λmax, εmax)
Assay type: physicochemical
Parameters: UV εmax: unit not given beside the values
Conditions: for UV εmax: at λmax

Row | Molecule | UV λmax (Ethanol) | UV εmax (Ethanol) | UV λmax (95% Ethanol) | UV εmax (95% Ethanol)
1 | CC(C)COC(=O)C(=Cc1ccc(Nc2nc(NCCC[Si](C)(O[Si](C)(C)C)O[Si](C)(C)C)nc(Nc3ccc(C=C(C(=O)OCC(C)C)C(=O)OCC(C)C)cc3)n2)cc1)C(=O)OCC(C)C [Example 5, 2,4-bis(diisobutyl 4′-ylaminobenzalmalonate)-6-{[1,1,1,3-tetramethyl-1-[(trimethylsilyl)oxy]disiloxanyl]propyl-3-ylamino}-s-triazine] | 356.5 nm | 65,650 | – | –
2 | 2-(butyl 4′-ylaminobenzoate)-4,6-bis{[1,3,3,3-tetramethyl-1-[(trimethylsilyl)oxy]disiloxanyl]propyl-3-ylamino}-s-triazine [Example 1] | 300 nm | 40,800 | – | –
3 | CCCCOC(=O)c1ccc(Nc2nc(NCCC[Si](C)(O[Si](C)(C)C)O[Si](C)(C)C)nc(Nc3ccc(C(=O)OCCCC)cc3)n2)cc1 [Example 3, 2,4-bis(butyl 4′-ylaminobenzoate)-6-{[1,3,3,3-tetramethyl-1-[(trimethylsilyl)oxy]disiloxanyl]propyl-3-ylamino}-s-triazine] | – | – | 310 nm | 75,510
4 | CC12CCC(C(=Cc3ccc(Nc4nc(NCCC[Si](C)(O[Si](C)(C)C)O[Si](C)(C)C)nc(Nc5ccc(C=C6C(=O)C7(C)CCC6C7(C)C)cc5)n4)cc3)C1=O)C2(C)C [Example 2, 2,4-bis(4′-ylamnobenzylidenecamphor)-6-{[1,3,3,3-tetramethyl-1-[(trimethylsilyl)oxy]disiloxanyl]propyl-3-ylamino}-s-triazine] | 354 nm | 66,460 | – | –
5 | Cc1cc(Nc2nc(NCCC[Si](C)(O[Si](C)(C)C)O[Si](C)(C)C)nc(NCCC[Si](C)(O[Si](C)(C)C)O[Si](C)(C)C)n2)c(O)c(-n2nc3ccccc3n2)c1 [Example 4, 2-(2-benzotriazol-2-yl-4-methyl-6-ylaminophenol)-4,6-bis{[1,3,3,3-tetramethyl-1-[(trimethylsilyl)oxy]disiloxanyl]propyl-3-ylamino}-s-triazine] | 324 nm | 22,000 | – | –
